The values below come from ChEMBL document CHEMBL3400033, “Molecular docking and antiviral activity of N-substituted benzyl/phenyl-2-(3,4-dimethyl-5,5-dioxidopyrazolo[4,3-c][1,2]benzothiazin-2(4H)-yl)acetamides” (Bioorg Med Chem Lett, 2015).

For test [1], the system named is Human immunodeficiency virus 1. Kind of test: Antiviral activity against HIV1 LAV-1 infected in human PBMC cells after 6 days by RT assay. It is filed as functional, organism-based. The note with it: Human immunodeficiency virus 1, LAV-1, PBMC, 144 h.
The test system of the next test is PBMC. Briefly: Cytotoxicity against human PBMC cells assessed as reduction in cell viability after 5 days by Cell Titer 96 Aqueous One Solution cell proliferation assay. It is filed as cell-based. The note with it: 120 h.
For a further test, the system named is CCRF-CEM. Briefly: Cytotoxicity against human CEM cells assessed as reduction in cell viability after 5 days by Cell Titer 96 Aqueous One Solution cell proliferation assay. Conditions: 120 h. It is filed as cell-based.
In another test the test system is Vero. Kind of test: Cytotoxicity against african green monkey Vero cells assessed as reduction in cell viability after 5 days by Cell Titer 96 Aqueous One Solution cell proliferation assay. It is filed as cell-based. Conditions: Chlorocebus sabaeus, 120 h.
Test [2] concerns Human immunodeficiency virus 1. Briefly: Antiviral activity against HIV1. It is filed as functional, organism-based.

The term EC50 denotes the concentration needed to bring the measured effect to its halfway point. For orientation: EC90 means the point of the concentration-response curve where the effect stands at 90%. A word on the IC50: it is the midpoint of a concentration-inhibition curve. Regarding `Cc1c2c(nn1CC(=O)Nc1cccc(Br)c1)-c1ccccc1S(=O)(=O)N2C`, the concentration for a half-maximal effect (EC50) in test [1] is 6.3 µM. Moreover, it took 15.3 µM to reach the 90% level in test [1] (EC90). In addition, the half-inhibitory concentration (IC50) in the test with PBMC worked out at 8.1 µM; in the test on CCRF-CEM it was 5.2 µM; with Vero, 7.2 µM.
In the same order, the values of `COc1ccc(NC(=O)Cn2nc3c(c2C)N(C)S(=O)(=O)c2ccccc2-3)c(OC)c1` are more than 100 µM, more than 100 µM, more than 100 µM, more than 100 µM and more than 100 µM.
In the same order, the values of `Cc1ccc(CNC(=O)Cn2nc3c(c2C)N(C)S(=O)(=O)c2ccccc2-3)cc1` are 9.9 µM, 77.7 µM, 52.2 µM, more than 100 µM and 63.1 µM.
Consider `Cc1c2c(nn1CC(=O)NCc1ccccc1F)-c1ccccc1S(=O)(=O)N2C`, for which, in test [1], the EC50 came to 57.5 µM. The EC90 in test [1] was not below 100 µM. The IC50 turned out to be 87.5 µM with PBMC, 82 µM with CCRF-CEM and 96.1 µM in the test on Vero.
Taken in the same sequence, the figures for `COc1ccc(CNC(=O)Cn2nc3c(c2C)N(C)S(=O)(=O)c2ccccc2-3)cc1` were 18.6 µM, not below 100 µM, more than 100 µM, more than 100 µM and 73 µM.
In test [1], `Cc1c2c(nn1CC(=O)NCc1ccccc1Cl)-c1ccccc1S(=O)(=O)N2C` registered a 50% effective concentration (EC50) of 15.9 µM. For the same compound, the EC90 in test [1] stood at 28.5 µM. In addition, the 50% inhibitory concentration (IC50) stood at 74.2 µM in the test with PBMC, 68.4 µM with CCRF-CEM and 38.7 µM in the test with Vero.
Regarding `C/C(=N\NC(=O)CN1c2c(-c3ccccc3)n[nH]c2-c2ccccc2S1(=O)=O)c1cc(Cl)sc1Cl`, the EC50 in test [2] amounted to 3.2 µM.
In the case of `Cc1c2c(nn1CC(=O)Nc1ccccc1Br)-c1ccccc1S(=O)(=O)N2C`, a half-maximal effect in test [1] (EC50) was put at 6.5 µM. Besides, the EC90 in test [1] worked out at 15.7 µM. Moreover, the IC50 in the test with PBMC is 2.4 µM; in the test on CCRF-CEM it was 6 µM; in the test on Vero, 8.2 µM.
Taken in the same sequence, the figures for `Cc1c2c(nn1CC(=O)Nc1ccccc1)-c1ccccc1S(=O)(=O)N2C` were 6.8 µM, 16.3 µM, 7.7 µM, less than 1 µM and 6.8 µM.
In the case of `COc1cccc(CNC(=O)Cn2nc3c(c2C)N(C)S(=O)(=O)c2ccccc2-3)c1`, in test [1], the concentration giving a half-maximal response (EC50) came out at 21.1 µM. The 90% effect concentration (EC90) in test [1] stood at 92 µM. For the same compound, the IC50 was determined as 18.7 µM in the test with PBMC, 28.8 µM in the test with CCRF-CEM and 31.1 µM in the test on Vero.
For the compound `Cc1c2c(nn1CC(=O)NCc1ccccc1Br)-c1ccccc1S(=O)(=O)N2C`, the midpoint of the response in test [1], the EC50, lay at 16.7 µM. This compound displayed a concentration for an effect of 90% (EC90) in test [1] of 87.5 µM. The results for the IC50 in the test on PBMC, in the test with CCRF-CEM and in the test on Vero were 63.1 µM, 38.1 µM and 36.5 µM, respectively.
In the same order, the values of `COc1cccc(NC(=O)Cn2nc3c(c2C)N(C)S(=O)(=O)c2ccccc2-3)c1` are 7.2 µM, 17.3 µM, 10.5 µM, 9.3 µM and not below 100 µM.
In the same order, the values of `Cc1c2c(nn1CC(=O)NCc1ccc(F)cc1)-c1ccccc1S(=O)(=O)N2C` are 22.4 µM, not below 100 µM, more than 100 µM, 41.9 µM and more than 100 µM.
For the compound `COc1ccccc1CNC(=O)Cn1nc2c(c1C)N(C)S(=O)(=O)c1ccccc1-2`, the EC50 in test [1] was 17.2 µM. Also, it took 60.3 µM to reach the 90% level in test [1] (EC90). Further, the IC50 in the test with PBMC was not below 100 µM; in the test on CCRF-CEM, more than 100 µM; in the test on Vero, more than 100 µM.
In test [1], `Cc1ccccc1CNC(=O)Cn1nc2c(c1C)N(C)S(=O)(=O)c1ccccc1-2` displayed an EC50 not below 100 µM. In test [1], the EC90 is more than 100 µM. The half-inhibitory concentration (IC50) in the test on PBMC, in the test with CCRF-CEM and in the test with Vero was more than 100 µM throughout.
As to `Cc1c2c(nn1CC(=O)Nc1ccccc1F)-c1ccccc1S(=O)(=O)N2C`, a half-maximal response in test [1] (EC50) required 7.6 µM. Moreover, the EC90 in test [1] is 35.4 µM. The IC50 in the test with PBMC worked out at 18 µM; with CCRF-CEM it was 9.5 µM; in the test with Vero it was 28.2 µM.
